Measurements reported in patent US7947706B2, “Substituted pyrrolopyridines, compositions containing them, manufacturing process therefor and use thereof” (Sanofi-Aventis Deutschland GmbH, priority 2005, dated 2011).

Row | melting point [°C] | Structure (SMILES)
1 | 221 | COc1ccc(C(F)(F)F)cc1NC(=O)Nc1ccc(-c2c(C(N)=O)[nH]c3ncccc23)cc1 [Example 32, 3-{4-[3-(2-Methoxy-5-trifluoromethylphenyl)ureido]phenyl}-1H-pyrrolo[2,3-b]pyridine-2-carboxamide]
2 | 216 | COc1ccccc1NC(=O)Nc1ccc(-c2c(C(N)=O)[nH]c3cnccc23)cc1 [Example 34, 3-{4-[3-(2-Methoxyphenyl)ureido]phenyl}-1H-pyrrolo[2,3-c]pyridine-2-carboxamide]
3 | 228 | NC(=O)c1[nH]c2cnccc2c1-c1ccc(NC(=O)Nc2ccccc2C(F)(F)F)cc1 [Example 35, 3-{4-[3-(2-Trifluoromethylphenyl)ureido]phenyl}-1H-pyrrolo[2,3-c]pyridine-2-carboxamide]
4 | 256 | NC(=O)c1[nH]c2cnccc2c1-c1ccc(NC(=O)Nc2cccc(C(F)(F)F)c2)cc1 [Example 36, 3-{4-[3-(3-Trifluoromethylphenyl)ureido]phenyl}-1H-pyrrolo-[2,3-c]pyridine-2-carboxamide]
5 | 271 | NC(=O)c1[nH]c2cnccc2c1-c1ccc(NC(=O)Nc2ccc(F)cc2)cc1 [Example 37, 3-{4-[3-(4-Fluorophenyl)ureido]phenyl}-1H-pyrrolo[2,3-c]-pyridine-2-carboxamide]
6 | 289 | NC(=O)c1[nH]c2cnccc2c1-c1ccc(NC(=O)Nc2ccc(C(F)(F)F)cc2)cc1 [Example 38, 3-{4-[3-(4-Trifluoromethylphenyl)ureido]phenyl}-1H-pyrrolo-[2,3-c]pyridine-2-carboxamide]
7 | 277 | Cc1ccc(NC(=O)Nc2ccc(-c3c(C(N)=O)[nH]c4cnccc34)cc2)cc1 [Example 39, 3-[4-(3-p-Tolylureido)phenyl]-1H-pyrrolo[2,3-c]pyridine-2-carboxamide]
8 | 228 | NC(=O)c1[nH]c2cnccc2c1-c1ccc(NC(=O)Nc2ccc(Cl)c(C(F)(F)F)c2)cc1 [Example 40, 3-{4-[3-(4-Chloro-3-trifluoromethylphenyl)ureido]phenyl}-1H-pyrrolo[2,3-c]pyridine-2-carboxamide]
9 | 243 | NC(=O)c1[nH]c2cnccc2c1-c1ccc(NC(=O)Nc2cc(C(F)(F)F)ccc2Cl)cc1 [Example 41, 3-{4-[3-(2-Chloro-5-trifluoromethylphenyl)ureido]phenyl}-1H-pyrrolo[2,3-c]pyridine-2-carboxamide]
10 | 276 | NC(=O)c1[nH]c2cnccc2c1-c1ccc(NC(=O)Nc2ccc(OC(F)(F)F)cc2)cc1 [Example 42, 3-{4-[3-(4-Trifluoromethoxyphenyl)ureido]phenyl}-1H-pyrrolo[2,3-c]pyridine-2-carboxamide]
11 | 257 | NC(=O)c1[nH]c2cnccc2c1-c1ccc(NC(=O)Nc2ccc(OC(F)F)cc2)cc1 [Example 43, 3-{4-[3-(4-Difluoromethoxyphenyl)ureido]phenyl}-1H-pyrrolo[2,3-c]pyridine-2-carboxamide]
12 | 230 | Cc1ccc(NC(=O)Nc2ccc(-c3c(C(N)=O)[nH]c4cnccc34)cc2)cc1C [Example 44, 3-{4-[3-(3,4-Dimethylphenyl)ureido]phenyl}-1H-pyrrolo[2,3-c]pyridine-2-carboxamide]
13 | 225 | COc1cc(NC(=O)Nc2ccc(-c3c(C(N)=O)[nH]c4cnccc34)cc2)cc(OC)c1 [Example 45, 3-{4-[3-(3,5-Dimethoxyphenyl)ureido]phenyl}-1H-pyrrolo-[2,3-c]pyridine-2-carboxamide]
14 | 261 | Cc1ccc(C)c(NC(=O)Nc2ccc(-c3c(C(N)=O)[nH]c4cnccc34)cc2)c1 [Example 46, 3-{4-[3-(2,5-Dimethylphenyl)ureido]phenyl}-1H-pyrrolo[2,3-c]pyridine-2-carboxamide]
15 | 242 | NC(=O)c1[nH]c2cnccc2c1-c1ccc(NC(=O)Nc2ccccc2F)cc1 [Example 47, 3-{4-[3-(2-Fluorophenyl)ureido]phenyl}-1H-pyrrolo[2,3-c]-pyridine-2-carboxamide]

The next lines start with the compound.

Row | Structure (SMILES) | melting point [°C]
16 | NC(=O)c1[nH]c2cnccc2c1-c1ccc(NC(=O)Nc2cccc(Cl)c2)cc1.O=C(O)C(F)(F)F | 221
17 | NC(=O)c1[nH]c2cnccc2c1-c1ccc(NC(=O)Nc2ccc(F)c(Cl)c2)cc1.O=C(O)C(F)(F)F | 214
18 | NC(=O)c1[nH]c2c(ccc[n+]2[O-])c1-c1ccc(NC(=O)Nc2cc(C(F)(F)F)ccc2F)cc1 [Example 8, 3-{4-[3-(2-Fluoro-5-trifluoromethylphenyl)ureido]phenyl}-7-oxy-1H-pyrrolo[2,3-b]pyridine-2-carboxamide] | 220
19 | NC(=O)c1[nH]c2ncccc2c1-c1ccc(NC(=O)Nc2ccccc2F)cc1 [Example 9, 3-{4-[3-(2-Fluorophenyl)ureido]phenyl}-1H-pyrrolo[2,3-b]-pyridine-2-carboxamide] | 268.7
20 | COc1ccccc1NC(=O)Nc1ccc(-c2c(C(N)=O)[nH]c3ncccc23)cc1 [Example 10, 3-{4-[3-(2-Methoxyphenyl)ureido]phenyl}-1H-pyrrolo[2,3-b]-pyridine-2-carboxamide] | 227.1
21 | NC(=O)c1[nH]c2ncccc2c1-c1ccc(NC(=O)Nc2ccc(C(F)(F)F)cc2)cc1 [Example 11, 3-{4-[3-(4-Trifluoromethylphenyl)ureido]phenyl}-1H-pyrrolo-[2,3-b]pyridine-2-carboxamide] | 296.2
22 | NC(=O)c1[nH]c2ncccc2c1-c1ccc(NC(=O)Nc2cc(C(F)(F)F)ccc2Cl)cc1 [Example 12, 3-{4-[3-(2-Chloro-5-trifluoromethylphenyl)ureido]phenyl}-1H-pyrrolo[2,3-b]pyridine-2-carboxamide] | 188.3
23 | NC(=O)c1[nH]c2ncccc2c1-c1ccc(NC(=O)Nc2cccc(C(F)(F)F)c2F)cc1 [Example 13, 3-{4-[3-(2-Fluoro-3-trifluoromethylphenyl)ureido]phenyl}-1H-pyrrolo[2,3-b]pyridine-2-carboxamide] | 265.4
24 | NC(=O)c1[nH]c2ncccc2c1-c1ccc(NC(=O)Nc2ccc(F)c(C(F)(F)F)c2)cc1 [Example 14, 3-{4-[3-(4-Fluoro-3-trifluoromethylphenyl)ureido]phenyl}-1H-pyrrolo[2,3-b]pyridine-2-carboxamide] | 234.7
25 | NC(=O)c1[nH]c2ncccc2c1-c1ccc(NC(=O)Nc2cc(F)cc(C(F)(F)F)c2)cc1 [Example 15, 3-{4-[3-(3-Fluoro-5-trifluoromethylphenyl)ureido]phenyl}-1H-pyrrolo[2,3-b]pyridine-2-carboxamide] | 257.5
26 | NC(=O)c1[nH]c2ncccc2c1-c1ccc(NC(=O)Nc2ccc(OC(F)(F)F)cc2)cc1 [Example 16, 3-{4-[3-(4-Trifluoromethoxyphenyl)ureido]phenyl}-1H-pyrrolo[2,3-b]pyridine-2-carboxamide] | 258.9
27 | COc1ccc(NC(=O)Nc2ccc(-c3c(C(N)=O)[nH]c4ncccc34)cc2)cc1OC [Example 17, 3-{4-[3-(3,4-Dimethoxyphenyl)ureido]phenyl}-1H-pyrrolo-[2,3-b]pyridine-2-carboxamide] | 223.7
28 | Cc1ccc(C)c(NC(=O)Nc2ccc(-c3c(C(N)=O)[nH]c4ncccc34)cc2)c1 [Example 18, 3-{4-[3-(2,5-Dimethylphenyl)ureido]phenyl}-1H-pyrrolo[2,3-b]pyridine-2-carboxamide] | 308.8
29 | COc1cccc(NC(=O)Nc2ccc(-c3c(C(N)=O)[nH]c4ncccc34)cc2)c1 [Example 19, 3-{4-[3-(3-Methoxyphenyl)ureido]phenyl}-1H-pyrrolo[2,3-b]-pyridine-2-carboxamide] | 306.2
30 | NC(=O)c1[nH]c2ncccc2c1-c1ccc(NC(=O)Nc2cccc(C(F)(F)F)c2)cc1 [Example 20, 3-{4-[3-(3-Trifluoromethylphenyl)ureido]phenyl}-1H-pyrrolo-[2,3-b]pyridine-2-carboxamide] | 263.6
31 | Cc1ccc(NC(=O)Nc2ccc(-c3c(C(N)=O)[nH]c4ncccc34)cc2)cc1C [Example 21, 3-{4-[3-(3,4-Dimethylphenyl)ureido]phenyl}-1H-pyrrolo[2,3-b]pyridine-2-carboxamide] | 274.7
32 | COc1ccc(C)cc1NC(=O)Nc1ccc(-c2c(C(N)=O)[nH]c3ncccc23)cc1 [Example 22, 3-{4-[3-(2-Methoxy-5-methylphenyl)ureido]phenyl}-1H-pyrrolo[2,3-b]pyridine-2-carboxamide] | 327.7
33 | Cc1cccc(NC(=O)Nc2ccc(-c3c(C(N)=O)[nH]c4ncccc34)cc2)c1 [Example 23, 3-[4-(3-m-Tolylureido)phenyl]-1H-pyrrolo[2,3-b]pyridine-2-carboxamide] | 266
34 | NC(=O)c1[nH]c2ncccc2c1-c1ccc(NC(=O)Nc2ccc(F)cc2)cc1 [Example 24, 3-{4-[3-(4-Fluorophenyl)ureido]phenyl}-1H-pyrrolo[2,3-b]-pyridine-2-carboxamide] | 299.9
35 | Cc1ccc(NC(=O)Nc2ccc(-c3c(C(N)=O)[nH]c4ncccc34)cc2)cc1 [Example 25, 3-[4-(3-p-Tolylureido)phenyl]-1H-pyrrolo[2,3-b]pyridine-2-carboxamide] | 293
36 | Cc1ccc(NC(=O)Nc2ccc(-c3c(C(N)=O)[nH]c4ncccc34)cc2)cc1C(F)(F)F [Example 26, 3-{4-[3-(4-Methyl-3-trifluoromethylphenyl)ureido]phenyl}-1H-pyrrolo[2,3-b]pyridine-2-carboxamide] | 285
37 | NC(=O)c1[nH]c2ncccc2c1-c1ccc(NC(=O)Nc2ccc(OC(F)F)cc2)cc1 [Example 27, 3-{4-[3-(4-Difluoromethoxyphenyl)ureido]phenyl}-1H-pyrrolo[2,3-b]pyridine-2-carboxamide] | 283.5
38 | COc1cc(NC(=O)Nc2ccc(-c3c(C(N)=O)[nH]c4ncccc34)cc2)cc(OC)c1 [Example 28, 3-{4-[3-(3,5-Dimethoxyphenyl)ureido]phenyl}-1H-pyrrolo-[2,3-b]pyridine-2-carboxamide] | 266.5
39 | NC(=O)c1[nH]c2ncccc2c1-c1ccc(NC(=O)Nc2ccc(Cl)c(C(F)(F)F)c2)cc1 [Example 29, 3-{4-[3-(4-Chloro-3-trifluoromethylphenyl)ureido]phenyl}-1H-pyrrolo[2,3-b]pyridine-2-carboxamide] | 311.1
